Data set [1] deals with FOLR1 expression in SKOV-3. Put plainly: Expression level of FOLR1 in ovarian cancer cell line after incubation with pemetrexed. The class given is cell-based, human. On the procedure:
(§1) After culturing each cell line under the above conditions, cells were detached using TrypLE Express, washed with phosphate buffer saline (PBS) and then suspended in FCM buffer (PBS containing 1 mmol/L EDTA, 0.05% sodium azide and 5% inactivated FCS).
(§2) Next, the cells were seeded in a 96-well plate at 1×10^5 cells per well and centrifuged at 1700 rpm for one minute. After removing the supernatant, an anti-human FOLR1 humanized antibody (HuRA15-7CTAcc antibody) (WO2014/087863) which was prepared at 10 μg/mL with FCM buffer was added to the cells and reacted for 30 minutes at 4° C.
(§3) After washing the cells, Anti-Human IgG-FITC (Jackson) which was diluted 100 times with the FCM buffer was added and reacted for 30 minutes at 4° C. After washing the cells again, the cells were suspended in the FCM buffer. The fluorescence intensities were analyzed with a flow cytometer (Beckman Coulter, Inc., FC500MPL) to determine the mean fluorescence intensity (MFI) of each cell.
(§4) First, SKOV-3 [American Type Culture Collection (hereinafter referred to as ATCC) No. HTB-77], MCAS (JCRB cell No. JCRB0240), NIH:OVCAR-3 (ATCC No. HTB-161) and IGR-OV1 (National Cancer Institute), which are ovarian cancer-derived cell lines, were cultured in the culture medium.

In data set [2] the test system is FOLR1 expression in IGR-OV1. Described as above. The class given is cell-based, human. The procedure:
as §1, §2, §3, §4

The subject of data set [3] is FOLR1 expression in OVCAR-3. The data set is described as above. The class given is cell-based, human. The following applies: OVCAR-3 [FIG. 2(C)], low folic acid medium, regardless of the final pemetrexed concentration. On the procedure: as §1, §2, §3, §4
A further data set deals with FOLR1 expression in MCAS. Described as above. The class given is cell-based, human. The procedure: as §1, §2, §3, §4
In data set [4] the test system is FOLR1 expression in NCI-H1437. Put plainly: Expression level of FOLR1 in NSCLC cell line after incubation with pemetrexed (flow cytometry, MFI). The class given is cell-based, human. To be noted: NCI-H1437, low folic acid medium, 72 hours. On the procedure:
(§5) NSCLC cell lines such as NCI-H522 [American Type Culture Collection (hereinafter referred to as ATCC) No. CRL-5810], NCI-H838 (ATCC No. CRL-5844), NCI-H1437 (ATCC No. CRL-5872) and NCI-H2228 (ATCC No. CRL-5935) were cultured in a culture medium [RPMI1640 (GIBCO), 10% inactivated bovine serum (FCS, GIBCO)].
(§6) Next, cells were detached from culture flasks using TrypLE Express (GIBCO) and suspended in a folic acid-free medium [RPMI 1640 folate-free (GIBCO), 10% inactivated dialyzed FCS (dFCS, GIBCO)]. The cells were seeded to 25-cm^2 tissue culture (TC) flasks at 2.5×10^5 cells/4 mL.
as §1, §2, §3
(In general: A flow cytometer gives signals particle by particle.)

Data set [5] has as its system FOLR1 expression in NCI-H522. The description is as above. The class given is cell-based, human. The following applies: NCI-H522, low folic acid medium, 0, 10 or 1000 nmol/L pemetrexed, 72 hours. On the procedure: as §5, §6, §1, §2, §3
Data set [6] relates to FOLR1 expression in NCI-H838. Described as above. The following applies: NCI-H838, low folic acid medium, 0, 10 or 1000 nmol/L pemetrexed, 72 hours. The class given is cell-based, human. The procedure:
as §5, §6, §1, §2, §3

In data set [7] the test system is FOLR1 expression in NCI-H2228. The data set is described as above. The class given is cell-based, human. The following applies: NCI-H2228, low folic acid medium, 72 hours. On the procedure:
as §5, §6, §1, §2, §3

The test system of data set [8] is FOLR1 expression in HEC-1-B. Description: Expression level of FOLR1 in endometrial cancer cell line after incubation with pemetrexed. The class given is cell-based, human. The procedure:
(§7) Endometrial cancer-derived cell line MES-SA (ATCC No. CRL-1976) and HEC-1-A (ATCC No. HTB-112) were cultured in McCoy's 5A medium (ATCC) containing 10% FCS (GIBCO), and HEC-1-B (ATCC No. HTB-113) was cultured in Eagle's Minimum Essential Medium (ATCC) containing 10% FCS (GIBCO).
(§8) Also, a flow cytometer manufactured by Becton, Dickinson and Company (FACSVerse) was used instead of the flow cytometer manufactured by Beckman Coulter, Inc. (FC500MPL).

The subject of data set [9] is FOLR1 expression in HEC-1-A. The data set is described as above. The class given is cell-based, human. The procedure: as §7, §8
For data set [10], the system named is FOLR1 expression in MES-SA. Described as above. The class given is cell-based, human. On the procedure:
as §7, §8

The nature of a further data set: in vitro. To be noted: human, MCAS ovarian cancer cells.
Data set [11] deals with ovarian cancer cell line MCAS. Put plainly: ADCC activity against pemetrexed-treated MCAS using healthy donor PBMCs (LDH release). The class given is cell-based, human. To be noted: for ADCC activity against MCAS cultured with pemetrexed versus cultured without pemetrexed: 20 nmol/L pemetrexed, P<0.05. The procedure:
(§9) These cells were adjusted at 1×10^4 cells/50 μL using ADCC measurement medium [phenol red-free RPMI1640 (GIBCO), 5% inactivated dFCS (GIBCO)] as target cell solutions.
(§10) Next, heparin-treated peripheral blood of a healthy donor was loaded into a LeucoSep lymphocyte separation tube (Greiner) filled with Lymphoprep (Cosmo Bio), and centrifuged at 1000×g for 20 minutes at room temperature.
(§11) After the centrifugation, the plasma fraction was removed, and the peripheral blood mononuclear cell (PBMC) layer was collected. Then, the cells were washed with the ADCC measurement medium. The PBMCs were adjusted at 2.5×10^5 cells/50 μL using the ADCC measurement medium as an effector cell solution.
HuRA15-7CTAcc antibody and MORAb-003 (farletuzumab) were used as anti-human FOLR1 humanized antibodies. The antibody solutions were prepared at 0.1, 1, 10, 100 and 1000 ng/mL with the ADCC measurement medium, so that the final concentrations of the assay became 0.033, 0.33, 3.3, 33 and 333 ng/mL.
(§12) Fifty μL of each the target cell solution, the effector cell solution, and the antibody solution, which were prepared as described above, were mixed in a U-bottom 96-well plate, so that the total volume of each well was 150 μL. After mixing the wells, the cells were precipitated by centrifugation at 50×g for five minutes at room temperature. These cells were reacted for four hours at 37° C.
(§13) After mixing the wells, the cells were precipitated again by centrifugation. Then, 50 μL of the supernatant of each well was dispensed to a new 96-well plate. The lactate dehydrogenase (LDH) activities of the dispensed supernatant solutions were measured using CytoTox 96 Non-Radioactive Cytotoxicity Assay (Promega) according to the instruction.
(§14) The ADCC activity was calculated by the following equation after subtracting the measured LDH activity value of the well containing the ADCC measurement medium only from the measured LDH activity value of all wells. These values were determined as the corrected LDH activity value of each well.
ADCC Activity (%)=100×(Exp−ET spo)/(T total−D−T spo) [Chem. 1]
Here, Exp is the corrected LDH activity value of a sample; ET spo is the corrected LDH activity value of the well in which the effector cell solution and the target cell solution were mixed; T total is the corrected LDH activity value of the well in which the target cells and the Lysis Solution attached to CytoTox 96 Non-Radioactive Cytotoxicity Assay were mixed; D is the corrected LDH activity value of the Lysis Solution; and T spo is the corrected LDH activity value of the well containing the target cells only.
In general terms: LDH leaks from cells whose membrane has failed.

The next data set relates to NSCLC. The following applies: patients with NSCLC; clinical trials terminated; cited from earlier work.
Another data set relates to ovarian cancer. The following applies: cited from earlier work.
Data set [12] has as its system NSCLC cell line NCI-H2228. Description: ADCC activity against pemetrexed-treated NCI-H2228 using healthy donor PBMCs (LDH release). The class given is cell-based, human. The following applies: for ADCC activity against NCI-H2228 cultured with pemetrexed versus cultured without pemetrexed: 1000 nmol/L pemetrexed, P<0.05. The procedure: as §9, §10, §11
HuRA15-7CTAcc antibody and MORAb-003 (farletuzumab) were used as anti-human FOLR1 humanized antibodies.
as §12, §13, §14
ADCC Activity (%)=100×(Exp−ET spo)/(T total−D−T spo) [Chem. 1] […]
The ADCC activity against the NSCLC cell line NCI-H2228 was evaluated by a similar method to that in Example 3 except for using pemetrexed at the final concentration of 0, 20 or 1000 nmol/L in the culture.

The mark [13] stands for this setting: 1000 nmol/L pemetrexed in low folic acid medium.
Setting [14] is: low folic acid medium, 0, 10 or 1000 nmol/L pemetrexed, 72 hours.

Method for in vitro: Then, detached cells were suspended in the folic acid-free medium, and the cells were seeded to 175-cm^2 TC flasks at 25×10^5 cells/28 mL. After 24-hour incubation, 14 mL of the 3× low folic acid medium was added, and the final folic acid concentration was adjusted at approximately 22.7 nmol/L. Then, pemetrexed was added to the culture at the final concentration of 0 or 20 nmol/L, and the cells were cultured for further 72 hours.
The cultured cells were detached from the culture flasks using 0.02% EDTA solution (Nacalai), and the cell counts and the viability were measured using Vi-CELL XR 2.01 (Beckman Coulter).

Consider `Nc1nc2[nH]cc(CCc3ccc(C(=O)N[C@@H](CCC(=O)O)C(=O)O)cc3)c2c(=O)[nH]1` [pemetrexed], for which the “expression level of FOLR1 relative to incubation in the culture medium (NC)” value in data set [1] (SKOV-3, 1000 nmol/L pemetrexed in low folic acid medium) is on record as “about 2.5 times”; in [2] (IGR-OV1, 1000 nmol/L pemetrexed in low folic acid medium), “about 2.5 times”; in the data set on FOLR1 expression in MCAS (setting [13]), “about 7 times”. For the same molecule, the “expression level of FOLR1, dependence on pemetrexed concentration” value in [1] (SKOV-3, low folic acid medium, 0, 10 or 1000 nmol/L pemetrexed) was “higher concentration of pemetrexed induced higher expression level of FOLR1”; in data set [2] (IGR-OV1, low folic acid medium, 0, 10 or 1000 nmol/L pemetrexed), “higher concentration of pemetrexed induced higher expression level of FOLR1”; in the data set on FOLR1 expression in MCAS (low folic acid medium, 0, 10 or 1000 nmol/L pemetrexed) it was “higher concentration of pemetrexed induced higher expression level of FOLR1”; in [5], “higher concentration of pemetrexed induced higher expression level of FOLR1”; in data set [6], “higher concentration of pemetrexed induced higher expression level of FOLR1”; in data set [8] (setting [14]) it was “higher pemetrexed treatment induced higher expression level of FOLR1”. In addition, the “expression level of FOLR1, dependence on pemetrexed concentration” value in data set [9] (setting [14]) and in data set [10] (setting [14]) was “higher pemetrexed treatment induced higher expression level of FOLR1” in each case. Also, in data set [3], the “expression level of FOLR1 compared to incubation in the culture medium” value is “did not increase”. Also, the “expression level of FOLR1 relative to incubation with 0 nmol/L pemetrexed” value in [4] (10 nmol/L pemetrexed) is recorded as “about 1.5 times”; in [4] (1000 nmol/L pemetrexed), about 2 times; in [7] (10 nmol/L pemetrexed), “about 1.5 times”; in data set [7] (1000 nmol/L pemetrexed), about 2 times. For the same molecule, the “expression level of FOLR1 relative to culture in the culture medium (NC)” value in data set [8] (setting [13]) is on record as “approximately 2 times”; in [9] (setting [13]) it was “approximately 3 times”; in [10] (setting [13]), “approximately 3.5 times”. Moreover, the viability at 72 h, 20 nmol/L in the data set “in vitro” was 96.6%.

Take “MORAb-003: existing anti-human FOLR1 humanized IgG1 antibody, sequences described in WO2005/080431”: the “ADCC activity against MCAS cultured with pemetrexed versus cultured without pemetrexed” value in data set [11] (healthy donor 2-derived PBMCs, antibody 0.33, 3.3, 33 and 333 ng/mL) is “significantly higher”. Moreover, the clinical benefit entry is listed as “did not show benefit” in the data set with NSCLC and “did not show benefit” in the data set on ovarian cancer (patients with platinum-resistant ovarian cancer, clinical trials terminated). Moreover, the clinical response result with ovarian cancer (patients with platinum-sensitive recurrent ovarian cancer) is “responses in some patients”. For the same molecule, in [12] (antibody 0.0033, 3.3, 33 and 333 ng/mL), the “ADCC activity against NCI-H2228 cultured with pemetrexed versus cultured without pemetrexed” value is “significantly higher”.

B1: HuRA15-7CTAcc: anti-human FOLR1 humanized antibody, VH SEQ ID NO: 8, VL SEQ ID NO: 9, expressed in FUT8 knocked out CHO/DG44 (WO2014/087863) (antibody, V domains shown)
VH: EVQLVESGGGLVQPGGSLRLSCAASGFTFTDFYMNWVRQPPGKAPEWLGFIRNKANGYTTEFNPSVKGRFTISRDNSKNSLYLQMNSLKTEDTATYYCARTLYGYAYYYVMDAWGQGTLVTVSS
VL: DIQMTQSPSSLSASLGDRVTITCRTSEDIFRNLAWYQQKPGKAPKLLIYDTNRLADGVPSRFSGSGSGTDYTLTISSLQPEDFATYFCQQYDNYPLTFGQGTKLEIK
modifications: afucosylated; nonS_HuRA15-7CTVH_AA; nonS_HuRA15-7LV3_AA
Regarding B1, the “ADCC activity against MCAS cultured with pemetrexed versus cultured without pemetrexed” value in data set [11] (healthy donor 1-derived PBMCs, all the antibody concentrations) is “significantly higher”; in data set [11] (healthy donor 2-derived PBMCs, antibody 0.033 and 0.33 ng/mL), “significantly higher”. For the same molecule, the “ADCC activity, dependence on antibody concentration” value in data set [11] (MCAS, PBMCs of two healthy donors, antibody 0.033-333 ng/mL) is reported as “cytotoxicity was observed in association with the antibody concentration”; in data set [12] (NCI-H2228, PBMCs of a healthy donor), “cytotoxicity was observed in association with the antibody concentration”. In data set [12] (all the antibody concentrations), the “ADCC activity against NCI-H2228 cultured with pemetrexed versus cultured without pemetrexed” value is listed as “significantly higher”.

As usually defined, the viability is a per cent measure of how many cells are alive, often set against a control. Higher therefore signals better survival.

(Values after patent US20170247449A1, “THERAPEUTIC METHOD AND MEDICAMENT FOR CANCER PATIENTS BY FOLR1-TARGETING DRUG AND AN ANTAGONIST FOR FOLIC ACID METABOLISM” (KYOWA HAKKO KIRIN CO., LTD, priority 2014, published 2017).)
